Structures can show the parent of a compound that is named as a salt. Where two headings read alike, the source gives them in different places.
Experiments:
Type in all cases: biochemical
[1] = target: T1, 5-hydroxytryptamine (5-HT) reuptake sites (Rattus norvegicus, UniProt P31652); experiment: inhibition of [3H]5-HT uptake in vitro, frontal cortical synaptosomes
T1 construct: Frontal cortical tissue from the brains of male Sprague-Dawley rats; from tissue; host or cells: rat brain frontal cortex (crude synaptosomes in A2, washed membranes in A5)
T1 sequence (P31652 whole entry): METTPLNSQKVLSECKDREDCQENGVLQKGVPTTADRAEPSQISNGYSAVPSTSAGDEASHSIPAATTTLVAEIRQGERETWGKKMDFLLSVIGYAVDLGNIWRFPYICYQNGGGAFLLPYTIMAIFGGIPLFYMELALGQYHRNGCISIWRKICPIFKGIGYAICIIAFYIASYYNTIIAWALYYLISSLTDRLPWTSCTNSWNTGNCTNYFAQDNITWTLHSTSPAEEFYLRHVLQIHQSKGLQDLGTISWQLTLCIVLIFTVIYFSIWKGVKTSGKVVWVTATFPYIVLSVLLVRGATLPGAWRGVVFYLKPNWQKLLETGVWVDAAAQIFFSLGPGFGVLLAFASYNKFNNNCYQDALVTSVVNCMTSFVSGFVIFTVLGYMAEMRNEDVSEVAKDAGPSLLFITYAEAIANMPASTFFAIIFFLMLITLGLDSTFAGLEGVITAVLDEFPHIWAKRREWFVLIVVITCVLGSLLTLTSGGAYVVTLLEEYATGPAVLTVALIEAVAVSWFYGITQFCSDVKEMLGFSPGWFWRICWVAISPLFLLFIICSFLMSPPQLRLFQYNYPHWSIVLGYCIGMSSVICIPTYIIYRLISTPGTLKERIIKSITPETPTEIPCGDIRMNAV
Experimental: (§1) Frontal cortical tissue from the brains of male Sprague-Dawley rats (Charles River; weight range 150-250 g) was homogenised in ice-cold 0.32M sucrose (1:10 w/v) using a motor driven teflon pestle (difference in diameter between mortar and pestle 0.5 mm). Nuclei and cell debris were removed by centrifugation at 1,500 g at 4° C. for 10 minutes. The pellet (P1) was discarded and the supernatant centrifuged at 28,000 g at 4° C. for 10 minutes. The crude synaptosomal pellet (P2) was resuspended in Krebs-Henseleit buffer (equivalent to 8.3 mg wet weight of tissue/ml).
Crude synaptosomes were incubated in a shaking water bath at 37° C. for 15 minutes. Aliquots (150 μl; equivalent to 1.25 mg wet weight of tissue/tube) were then added to tubes containing 275 μl of Krebs-Henseleit buffer and 50 μl of Krebs-Henseleit buffer (total uptake) or 50 μl of test compound (at 10 concentrations ranging from 10^-11 -10^-4 M) or 50 μl of zimeldine (10^-5 M; non-specific uptake). Uptake was initiated by the addition of 25 μl of freshly prepared [^3 H]5-HT (2 nM), followed by vortexing, and was continued for 5 minutes at 37° C. in the shaking water bath. Uptake was terminated by filtration under vacuum through Skatron 11734 filters using a Skatron cell harvester. Filters were then washed with 8 ml ice-cold saline. The scored filter paper discs were punched into vials, scintillation fluid added and radioactivity determined by liquid scintillation counting.
(§2) For each of the dopamine (DA) uptake, 5-hydroxytryptamine (5-HT) uptake and noradrenaline (NA) uptake inhibition tests, the percentage inhibition of specific uptake of the tritiated ligand was calculated for each concentration of test compound. Inhibition curves were then produced. The concentration which gave 50% inhibition of specific uptake (IC50) was obtained from the curve. The inhibition constant (Ki) was then calculated using the formula [formula]
(§3) in which [ligand] is the concentration of tritiated ligand used and Km is the affinity of the uptake site for the ligand. […] Values are means of three independent determinations unless otherwise indicated.

[2] = target: T2, noradrenaline (NA) reuptake sites (Rattus norvegicus, UniProt Q63380); experiment: inhibition of [3H]noradrenaline uptake in vitro, frontal cortical synaptosomes; details: [3H]noradrenaline 10 nM, means of three independent determinations
T2 construct: Frontal cortical tissue from the brains of male Sprague-Dawley rats; from tissue; host or cells: rat brain frontal cortex (crude synaptosomes in A3, washed membranes in A6)
T2 sequence (Q63380 1-617): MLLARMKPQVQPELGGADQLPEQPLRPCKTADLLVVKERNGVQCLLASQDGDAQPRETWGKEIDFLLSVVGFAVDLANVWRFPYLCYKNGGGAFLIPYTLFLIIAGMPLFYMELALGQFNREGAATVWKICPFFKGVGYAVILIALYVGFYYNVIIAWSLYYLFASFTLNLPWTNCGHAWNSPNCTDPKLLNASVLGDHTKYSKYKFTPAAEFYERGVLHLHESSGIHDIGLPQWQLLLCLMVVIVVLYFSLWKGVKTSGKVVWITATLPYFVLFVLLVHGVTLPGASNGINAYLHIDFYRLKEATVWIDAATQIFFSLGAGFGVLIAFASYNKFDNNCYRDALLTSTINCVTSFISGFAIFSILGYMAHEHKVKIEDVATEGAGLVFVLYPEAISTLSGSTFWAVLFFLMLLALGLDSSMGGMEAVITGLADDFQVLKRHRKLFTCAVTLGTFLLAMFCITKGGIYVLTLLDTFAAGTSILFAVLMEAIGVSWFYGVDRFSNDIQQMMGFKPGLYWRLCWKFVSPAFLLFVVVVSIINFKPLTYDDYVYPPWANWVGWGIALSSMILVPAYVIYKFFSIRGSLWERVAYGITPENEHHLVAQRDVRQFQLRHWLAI
Experimental: as §1, with “Krebs-Physiological” for “Krebs-Henseleit”, “16.7” for “8.3”
Crude synaptosomes were incubated in a shaking water bath at 37° C. for 15 minutes. Aliquots (150 μl; equivalent to 2.5 mg wet weight of tissue/tube) were then added to tubes containing 275 μl of Krebs-Physiological buffer and 50 μl of Krebs-Physiological buffer (total uptake) or 50 μl of test compound (at 10 concentrations ranging from […]) or 50 μl of desipramine (10^-5 M; non-specific uptake). Uptake was initiated by the addition of 25 μl of freshly prepared [^3 H]noradrenaline (10 nM), followed by vortexing and was continued for 5 minutes at 37° C. in the shaking water bath. Uptake was terminated by filtration under vacuum through Whatman GF/B filters using a Brandel cell harvester. Filters were then washed with 8 ml ice-cold saline. The scored filter paper discs were placed into vials, scintillation fluid added and radioactivity determined by liquid scintillation counting.
as §2, §3

[3] = target: T3, dopamine (DA) reuptake sites (Rattus norvegicus, UniProt P23977); experiment: inhibition of [3H]dopamine uptake in vitro, striatal synaptosomes; details: [3H]dopamine 2.5 nM, means of three independent determinations
T3 construct: Striatal tissue from the brains of male Charles River rats weighing 150-250 g; from tissue; host or cells: rat brain striatum (crude synaptosomes in A1, washed membranes in A4)
T3 sequence (P23977 whole entry): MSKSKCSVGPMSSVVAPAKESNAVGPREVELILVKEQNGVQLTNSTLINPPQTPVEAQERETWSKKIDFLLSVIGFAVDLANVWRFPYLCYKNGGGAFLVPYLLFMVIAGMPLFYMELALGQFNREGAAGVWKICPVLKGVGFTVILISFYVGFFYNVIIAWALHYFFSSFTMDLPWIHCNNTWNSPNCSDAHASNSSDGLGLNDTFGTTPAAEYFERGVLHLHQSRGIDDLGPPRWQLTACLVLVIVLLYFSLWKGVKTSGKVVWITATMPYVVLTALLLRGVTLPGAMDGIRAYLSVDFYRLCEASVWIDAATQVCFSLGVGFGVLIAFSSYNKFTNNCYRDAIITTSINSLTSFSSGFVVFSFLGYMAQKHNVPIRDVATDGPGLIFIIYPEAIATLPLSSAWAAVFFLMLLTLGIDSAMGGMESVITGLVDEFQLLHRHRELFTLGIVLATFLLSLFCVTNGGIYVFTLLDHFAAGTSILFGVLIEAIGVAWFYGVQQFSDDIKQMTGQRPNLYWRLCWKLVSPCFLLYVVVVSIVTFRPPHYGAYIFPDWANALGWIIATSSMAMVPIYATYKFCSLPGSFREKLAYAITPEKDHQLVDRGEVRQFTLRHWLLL
Experimental: as §1, with “Striatal” for “Frontal cortical”, “Charles River” for “Sprague-Dawley”, “weighing” for “(Charles River; weight range”, “g” for “g)”, “4.2” for “8.3”
Crude synaptosomes were incubated in a shaking water bath at 37° C. for 15 minutes. Aliquots (150 μl; equivalent to 0.625 mg wet weight of tissue/tube) were then added to tubes containing 275 μl of Krebs-Henseleit buffer and 50 μl of Krebs-Henseleit buffer (total uptake) or 50 μl of test compound (10 concentrations ranging from 10^-11 -10^-4 M or 50 μl of GBR 12909 (10^-5 M; non-specific uptake). Uptake was initiated by the addition of 25 μl of freshly prepared [^3 H]dopamine (2.5 nM), followed by vortexing and was continued for 5 minutes at 37° C. in the shaking water bath.
Uptake was terminated by filtration under vacuum through Skatron 11735 filters using a Skatron cell harvester. Filters were then washed with 8 ml ice-cold saline. The scored filter paper discs were punched into vials, scintillation fluid added and radioactivity determined by liquid scintillation counting.
as §2, §3

SMILES	Ki [1]	Ki [2]	Ki [3]	Ki ([1]; rat frontal cortical synaptosomes, [3H]5-HT 2 nM, means of three independent determinations, read-out: 5-HT uptake (Ki))
Clc1ccc(C2(C3=CSC4=NCCCN34)CCC2)cc1 [Example 2, 3-[1-(4-chlorophenyl)cyclobutyl]-6,7-dihydro-5H-thiazolo[3,2-a]pyrimidine hydrobromide]	782 nM	261 nM	104 nM	
C1=C(C2(c3ccc4ccccc4c3)CCC2)N2CCN=C2S1 [Example 5, 3-[1-(2-naphthyl)cyclobutyl]-5,6-dihydroimidazo[2,1-b]thiazole hydrobromide]	25 nM	4.4 nM	5.9 nM	
Clc1ccc(C2(C3=CSC4=NCCN34)CCC2)cc1Cl [Example 1, 3-[1-(3,4-dichlorophenyl)cyclobuty]-5,6-dihydroimidazo[2,1-b]thiazole hydrobromide]		34 nM	9.2 nM	120 nM
Clc1ccc(C2(C3=CSC4=NCCCN34)CCC2)cc1Cl [Example 4, 3-[1-(3,4-dichlorophenyl)cyclobutyl]-6,7-dihydro-5H-thiazolo[3,2-a]pyrimidine hydrobromide]	137 nM	15 nM	9.5 nM	
Clc1ccc(C2(C3=CSC4=NCCN34)CCC2)cc1 [Example 3, 3-[1-(4-chlorophenyl)cyclobutyl]-5,6-dihydroimidazo-[2,1-b]thiazole hydrobromide]	795 nM	22 nM	79 nM	
